pEC50, pIC50: −log10 of the molar value.
Experiments:
NS3-NS4 [1] = molecular target: T1, NS3-NS4 (Hepatitis C virus genotype 1a, UniProt P27958); test: NS3-NS4 activity, IC50 (Example 37, Table 8); assay type: biochemical
NS3-NS4 [2] = molecular target: T1, NS3-NS4; test: cell-based; details: EC50, NS3-NS4 activity

T1 sequence (P27958 1027-1657): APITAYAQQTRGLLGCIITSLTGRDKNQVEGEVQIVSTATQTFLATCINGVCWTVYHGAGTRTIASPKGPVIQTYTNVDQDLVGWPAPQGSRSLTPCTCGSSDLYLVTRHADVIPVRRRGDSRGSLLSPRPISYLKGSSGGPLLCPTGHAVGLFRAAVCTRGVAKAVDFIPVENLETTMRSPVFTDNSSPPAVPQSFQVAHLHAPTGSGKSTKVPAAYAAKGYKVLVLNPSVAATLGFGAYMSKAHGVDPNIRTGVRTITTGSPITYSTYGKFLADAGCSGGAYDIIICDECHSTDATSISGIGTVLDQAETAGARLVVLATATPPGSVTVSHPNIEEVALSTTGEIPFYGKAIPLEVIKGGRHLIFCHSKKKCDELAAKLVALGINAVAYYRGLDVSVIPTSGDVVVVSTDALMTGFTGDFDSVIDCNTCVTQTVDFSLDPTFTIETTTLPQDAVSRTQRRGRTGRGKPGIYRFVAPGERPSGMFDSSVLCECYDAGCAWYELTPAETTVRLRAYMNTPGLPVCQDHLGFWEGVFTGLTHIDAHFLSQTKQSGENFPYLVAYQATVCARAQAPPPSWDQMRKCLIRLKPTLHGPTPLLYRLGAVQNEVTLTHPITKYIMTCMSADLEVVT
T1 sequence (P27958 1658-1711): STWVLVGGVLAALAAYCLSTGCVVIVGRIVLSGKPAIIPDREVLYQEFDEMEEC

CCCS(=O)(=O)NC(=O)[C@@]12C[C@H]1/C=C\CCCCC[C@H](NC(=O)OC(C)(C)C)C(=O)N1C[C@H](OC(=O)N3Cc4cccc(F)c4C3)C[C@H]1C(=O)N2 [Compound 550]
pIC50 (NS3-NS4 [1]): > 7.00 | pEC50 (NS3-NS4 [2]): > 7.00

CC(C)(C)OC(=O)N[C@H]1CCCCC/C=C\[C@@H]2C[C@@]2(C(=O)NS(=O)(=O)Cc2cccc(F)c2)NC(=O)[C@@H]2C[C@@H](OC(=O)N3Cc4cccc(F)c4C3)CN2C1=O [Compound 508]
pIC50 (NS3-NS4 [1]): > 7.00 | pEC50 (NS3-NS4 [2]): 6.00 to 7.00

O=C1N[C@]2(C(=O)NS(=O)(=O)C3CC3)C[C@H]2/C=C\CCCCC[C@H](Nc2nc(-c3ccc(F)cc3F)cs2)C(=O)N2C[C@H](OC(=O)N3Cc4cccc(F)c4C3)C[C@@H]12 [Compound 219]
pIC50 (NS3-NS4 [1]): > 7.00 | pEC50 (NS3-NS4 [2]): > 7.00

CC1(COC(=O)N[C@H]2CCCCC/C=C\[C@@H]3C[C@@]3(C(=O)NS(=O)(=O)C3CC3)NC(=O)[C@@H]3C[C@@H](OC(=O)N4Cc5cccc(F)c5C4)CN3C2=O)CC1 [Compound 435]
pIC50 (NS3-NS4 [1]): > 7.00 | pEC50 (NS3-NS4 [2]): > 7.00

CC(C)CN(C)C(=O)N[C@H]1CCCCC/C=C\[C@@H]2C[C@@]2(C(=O)NS(=O)(=O)C2CC2)NC(=O)[C@@H]2C[C@@H](OC(=O)N3Cc4cccc(F)c4C3)CN2C1=O [Compound 437]
pIC50 (NS3-NS4 [1]): > 7.00 | pEC50 (NS3-NS4 [2]): > 7.00

CC(C)(C)COC(=O)N[C@H]1CCCCC/C=C\[C@@H]2C[C@@]2(C(=O)NS(=O)(=O)C2CC2)NC(=O)[C@@H]2C[C@@H](OC(=O)N3Cc4cccc(F)c4C3)CN2C1=O [Compound 406, (2R,6S,13aS,14aR,16aS,Z)-14a-(cyclopropylsulfonylcarbamoyl)-6-(neopentyloxycarbonylamino)-5,16-dioxo-1,2,3,5,6,7,8,9,10,11,13a,14,14a,15,16,16a-hexadecahydrocyclopropa[e]pyrrolo[1,2-a][1,4]diazacyclopentadecin-2-yl 4-fluoroisoindoline-2-carboxylate]
pIC50 (NS3-NS4 [1]): > 7.00 | pEC50 (NS3-NS4 [2]): > 7.00

CC(C)(C)OC(=O)N[C@H]1CCCCC/C=C\[C@@H]2C[C@@]2(C(=O)NS(=O)(=O)Cc2ccc(F)c(F)c2)NC(=O)[C@@H]2C[C@@H](OC(=O)N3Cc4cccc(F)c4C3)CN2C1=O [Compound 522]
pIC50 (NS3-NS4 [1]): > 7.00 | pEC50 (NS3-NS4 [2]): 6.00 to 7.00

CCCC1(S(=O)(=O)NC(=O)[C@@]23C[C@H]2CCCCCCC[C@H](NC(=O)OC(C)(C)C)C(=O)N2C[C@H](OC(=O)N4Cc5cccc(F)c5C4)C[C@H]2C(=O)N3)CC1 [Compound 651]
pIC50 (NS3-NS4 [1]): > 7.00 | pEC50 (NS3-NS4 [2]): > 7.00

O=C1N[C@]2(C(=O)NS(=O)(=O)C3CC3)C[C@H]2/C=C\CCC(F)(F)CC[C@H](NC(=O)C2(C(F)(F)F)CC2)C(=O)N2C[C@H](OC(=O)N3Cc4cccc(F)c4C3)C[C@@H]12 [Compound 408]
pIC50 (NS3-NS4 [1]): > 7.00 | pEC50 (NS3-NS4 [2]): > 7.00

CC(C)(C)OC(=O)N[C@H]1CCCCC/C=C\[C@@H]2C[C@@]2(C(=O)NS(=O)(=O)Cc2cc(C(F)(F)F)cc(C(F)(F)F)c2)NC(=O)[C@@H]2C[C@@H](OC(=O)N3Cc4cccc(F)c4C3)CN2C1=O [Compound 528]
pIC50 (NS3-NS4 [1]): > 7.00 | pEC50 (NS3-NS4 [2]): 4.30 to 5.00

O=C1N[C@]2(C(=O)NS(=O)(=O)C3CC3)C[C@H]2/C=C\CCCCC[C@H](Nc2ccc(F)cc2)C(=O)N2C[C@H](OC(=O)N3Cc4cccc(F)c4C3)C[C@@H]12 [Compound 447, (2R,6S,13aS,14aR,16aS,Z)-14a-(cyclopropylsulfonylcarbamoyl)-6-(4-fluorophenylamino)-5,16-dioxo-1,2,3,5,6,7,8,9,10,11,13a,14,14a,15,16,16a-hexadecahydrocyclopropa[e]pyrrolo[1,2-a][1,4]diazacyclopentadecin-2-yl 4-fluoroisoindoline-2-carboxylate]
pIC50 (NS3-NS4 [1]): > 7.00 | pEC50 (NS3-NS4 [2]): > 7.00

Cc1cc(S(=O)(=O)NC(=O)[C@@]23C[C@H]2/C=C\CCCCC[C@H](NC(=O)OC(C)(C)C)C(=O)N2C[C@H](OC(=O)N4Cc5cccc(F)c5C4)C[C@H]2C(=O)N3)c(C)s1 [Compound 302, (2R,6S,13aS,14aR,16aS,Z)-6-(tert-butoxycarbonylamino)-14a-(2,5-dimethylthiophen-3-ylsulfonylcarbamoyl)-5,16-dioxo-1,2,3,5,6,7,8,9,10,11,13a,14,14a,15,16,16a-hexadecahydrocyclopropa[e]pyrrolo[1,2-a][1,4]diazacyclopentadecin-2-yl 4-fluoroisoindoline-2-carboxylate]
pIC50 (NS3-NS4 [1]): > 7.00 | pEC50 (NS3-NS4 [2]): > 7.00

COc1ccc(S(=O)(=O)NC(=O)[C@@]23C[C@H]2/C=C\CCCCC[C@H](NC(=O)OC(C)(C)C)C(=O)N2C[C@H](OC(=O)N4Cc5cccc(F)c5C4)C[C@H]2C(=O)N3)cc1 [Compound 352]
pIC50 (NS3-NS4 [1]): > 7.00 | pEC50 (NS3-NS4 [2]): > 7.00

CC(=O)O[C@@H]1C[C@H]2C(=O)N[C@]3(C(=O)NS(=O)(=O)C4CC4)C[C@H]3/C=C\CCCCC[C@H](Nc3ncc(-c4ccccc4)s3)C(=O)N2C1 [Compound 203, (2R,6S,13aS,14aR,16aS,Z)-14a-(cyclopropylsulfonylcarbamoyl)-5,16-dioxo-6-(5-phenylthiazol-2-ylamino)-1,2,3,5,6,7,8,9,10,11,13a,14,14a,15,16,16a-hexadecahydrocyclopropa[e]pyrrolo[1,2-a][1,4]diazacyclopentadecin-2-yl acetate]
pIC50 (NS3-NS4 [1]): > 7.00 | pEC50 (NS3-NS4 [2]): 5.00 to 6.00

CC(C)(C)OC(=O)N[C@H]1CCCCCCC[C@@H]2C[C@@]2(C(=O)NS(=O)(=O)c2ccccc2)NC(=O)[C@@H]2C[C@@H](OC(=O)N3Cc4cccc(F)c4C3)CN2C1=O [Compound 601]
pIC50 (NS3-NS4 [1]): > 7.00 | pEC50 (NS3-NS4 [2]): > 7.00

Cc1ccccc1CS(=O)(=O)NC(=O)[C@@]12C[C@H]1CCCCCCC[C@H](NC(=O)OC(C)(C)C)C(=O)N1C[C@H](OC(=O)N3Cc4cccc(F)c4C3)C[C@H]1C(=O)N2 [Compound 613]
pIC50 (NS3-NS4 [1]): > 7.00 | pEC50 (NS3-NS4 [2]): > 7.00

CC(C)(C)OC(=O)N[C@H]1CCCCC/C=C\[C@@H]2C[C@@]2(C(=O)NS(=O)(=O)Cc2cccc(Cl)c2)NC(=O)[C@@H]2C[C@@H](OC(=O)N3Cc4cccc(F)c4C3)CN2C1=O [Compound 511]
pIC50 (NS3-NS4 [1]): > 7.00 | pEC50 (NS3-NS4 [2]): > 7.00

CCN(C(=O)N[C@H]1CCCCC/C=C\[C@@H]2C[C@@]2(C(=O)NS(=O)(=O)C2CC2)NC(=O)[C@@H]2C[C@@H](OC(=O)N3Cc4cccc(F)c4C3)CN2C1=O)C(C)(C)C [Compound 423]
pIC50 (NS3-NS4 [1]): > 7.00 | pEC50 (NS3-NS4 [2]): > 7.00

C=CCC1(S(=O)(=O)NC(=O)[C@@]23C[C@H]2CCCCCCC[C@H](NC(=O)OC(C)(C)C)C(=O)N2C[C@H](OC(=O)N4Cc5cccc(F)c5C4)C[C@H]2C(=O)N3)CC1 [Compound 649]
pIC50 (NS3-NS4 [1]): > 7.00 | pEC50 (NS3-NS4 [2]): > 7.00

CC(C)(C)OC(=O)N[C@H]1CCCCCCC[C@@H]2C[C@@]2(C(=O)NS(=O)(=O)c2cc(Cl)sc2Cl)NC(=O)[C@@H]2C[C@@H](OC(=O)N3Cc4cccc(F)c4C3)CN2C1=O [Compound 606]
pIC50 (NS3-NS4 [1]): > 7.00 | pEC50 (NS3-NS4 [2]): > 7.00

CCCS(=O)(=O)NC(=O)[C@@]12C[C@H]1CCCCCCC[C@H](NC(=O)OC(C)(C)C)C(=O)N1C[C@H](OC(=O)N3Cc4cccc(F)c4C3)C[C@H]1C(=O)N2 [Compound 655]
pIC50 (NS3-NS4 [1]): > 7.00 | pEC50 (NS3-NS4 [2]): > 7.00

CC(C)(C)OC(=O)N[C@H]1CCCCC/C=C\[C@@H]2C[C@@]2(C(=O)NS(=O)(=O)c2cccc(F)c2)NC(=O)[C@@H]2C[C@@H](OC(=O)N3Cc4cccc(F)c4C3)CN2C1=O [Compound 350]
pIC50 (NS3-NS4 [1]): > 7.00 | pEC50 (NS3-NS4 [2]): > 7.00

CCC1(S(=O)(=O)NC(=O)[C@@]23C[C@H]2CCCCCCC[C@H](NC(=O)OC(C)(C)C)C(=O)N2C[C@H](OC(=O)N4Cc5cccc(F)c5C4)C[C@H]2C(=O)N3)CC1 [Compound 650]
pIC50 (NS3-NS4 [1]): > 7.00 | pEC50 (NS3-NS4 [2]): > 7.00

CC(C)(C)OC(=O)N[C@H]1CCCCC/C=C\[C@@H]2C[C@@]2(C(=O)NS(=O)(=O)Cc2c(F)cccc2F)NC(=O)[C@@H]2C[C@@H](OC(=O)N3Cc4cccc(F)c4C3)CN2C1=O [Compound 521]
pIC50 (NS3-NS4 [1]): > 7.00 | pEC50 (NS3-NS4 [2]): > 7.00

CC(C)(C)OC(=O)N[C@H]1CCCCCCC[C@@H]2C[C@@]2(C(=O)NOc2ccc(Cl)cc2)NC(=O)[C@@H]2C[C@@H](OC(=O)N3Cc4cccc(F)c4C3)CN2C1=O [Compound 809]
pIC50 (NS3-NS4 [1]): > 7.00 | pEC50 (NS3-NS4 [2]): 5.00 to 6.00

Cc1ccc(C)c(CS(=O)(=O)NC(=O)[C@@]23C[C@H]2CCCCCCC[C@H](NC(=O)OC(C)(C)C)C(=O)N2C[C@H](OC(=O)N4Cc5cccc(F)c5C4)C[C@H]2C(=O)N3)c1 [Compound 629]
pIC50 (NS3-NS4 [1]): > 7.00 | pEC50 (NS3-NS4 [2]): > 7.00

O=C(N[C@H]1CCCCC/C=C\[C@@H]2C[C@@]2(C(=O)NS(=O)(=O)C2CC2)NC(=O)[C@@H]2C[C@@H](OC(=O)N3Cc4cccc(F)c4C3)CN2C1=O)OC1CCOC1 (some centres unmarked) [Compound 412]
pIC50 (NS3-NS4 [1]): > 7.00 | pEC50 (NS3-NS4 [2]): > 7.00

CC(C)(C)OC(=O)N[C@H]1CCCCC/C=C\[C@@H]2C[C@@]2(C(=O)NS(=O)(=O)c2ccc(F)cc2F)NC(=O)[C@@H]2C[C@@H](OC(=O)N3Cc4cccc(F)c4C3)CN2C1=O [Compound 310]
pIC50 (NS3-NS4 [1]): > 7.00 | pEC50 (NS3-NS4 [2]): > 7.00

CC(C)(C)OC(=O)N[C@H]1CCCCC/C=C\[C@@H]2C[C@@]2(C(=O)NS(=O)(=O)c2c(Cl)cccc2Cl)NC(=O)[C@@H]2C[C@@H](OC(=O)N3Cc4cccc(F)c4C3)CN2C1=O [Compound 311]
pIC50 (NS3-NS4 [1]): > 7.00 | pEC50 (NS3-NS4 [2]): 6.00 to 7.00

Cc1ccc(CS(=O)(=O)NC(=O)[C@@]23C[C@H]2/C=C\CCCCC[C@H](NC(=O)OC(C)(C)C)C(=O)N2C[C@H](OC(=O)N4Cc5cccc(F)c5C4)C[C@H]2C(=O)N3)cc1 [Compound 515]
pIC50 (NS3-NS4 [1]): > 7.00 | pEC50 (NS3-NS4 [2]): > 7.00

CC(C)(C)OC(=O)N[C@H]1CCCCC/C=C\[C@@H]2C[C@@]2(C(=O)NOc2ccc(Cl)cc2)NC(=O)[C@@H]2C[C@@H](OC(=O)N3Cc4cccc(F)c4C3)CN2C1=O [Compound 707]
pIC50 (NS3-NS4 [1]): > 7.00 | pEC50 (NS3-NS4 [2]): 5.00 to 6.00

O=C1N[C@]2(C(=O)NS(=O)(=O)C3CC3)C[C@H]2/C=C\CCC(F)(F)CC[C@H](NC(=O)C2(C(F)(F)F)CC2)C(=O)N2C[C@H](OC(=O)N3Cc4ccccc4C3)C[C@@H]12 [Compound 409]
pIC50 (NS3-NS4 [1]): > 7.00 | pEC50 (NS3-NS4 [2]): > 7.00

CC(C)(C)OC(=O)N[C@H]1CCCCC/C=C\[C@@H]2C[C@@]2(C(=O)NS(=O)(=O)Cc2c(Cl)cccc2Cl)NC(=O)[C@@H]2C[C@@H](OC(=O)N3Cc4cccc(F)c4C3)CN2C1=O [Compound 527]
pIC50 (NS3-NS4 [1]): > 7.00 | pEC50 (NS3-NS4 [2]): > 7.00

O=C(N[C@H]1CCCCC/C=C\[C@@H]2C[C@@]2(C(=O)NS(=O)(=O)c2ccc(Cl)cc2)NC(=O)[C@@H]2C[C@@H](OC(=O)N3Cc4cccc(Cl)c4C3)CN2C1=O)OC1CCOCC1 [Compound 335]
pIC50 (NS3-NS4 [1]): > 7.00 | pEC50 (NS3-NS4 [2]): 6.00 to 7.00

Source: patent US20090155209A1, “NOVEL MACROCYCLIC INHIBITORS OF HEPATITIS C VIRUS REPLICATION” (priority 2007, published 2009)
